Measured values: paper PMC9694488, “Amyloid beta and its naturally occurring N-terminal variants are potent activators of human and mouse formyl peptide receptor 1” (The Journal of Biological Chemistry, 2022)

Key:
monocytes and microglia = conditions: cited from earlier work
From the text: Factors such as the secondary structure, 3D conformation, and aggregation therefore seem to be of high importance for the precise activation pattern, and different receptor subtypes seem to prefer different peptide structures or exposed surfaces. Multiple previous studies have already shown that different buffer systems and solvents can critically influence properties of Aβ such as its aggregation kinetics and the structure ...

mFpr2 = assay: Ca2+ imaging, HEK293T transiently transfected with mFpr2; type: cell-based, mouse
Method: (§2) All peptides were thawed at room temperature approximately 1 h before each functional experiment, as this time was needed to prepare the compound plates for each measurement.
(§3) HEK293T cells (ATCC) were cultured in Dulbecco’s Modified Eagle’s medium (DMEM, Biowest) supplemented with 10% (v/v) heat-inactivated fetal calf serum (FCS, Pan Biotech), 1 unit/ml penicillin-streptomycin (Biowest), and 2 mM L-glutamine (Biowest) until 80% confluence. For transfection, approximately 2000 cells were seeded in each well of poly-D-lysine–coated (PDL) (10 μg/ml in PBS, Sigma) black optical 96-well μCLEAR-plates (Greiner Bio-One). Cells were transfected after 24 h using jetPEI (Polyplus-transfection SA) with 0.125 μg of DNA plasmids encoding the respective receptors and equal amounts of a plasmid encoding the G protein subunit Gα16 since this subunit is needed to trigger FPR-dependent calcium signals in HEK293 cells ([50], [70]). The medium of transfected cells was changed 24 h after transfection. For mock transfections, the proportion of the FPR-containing plasmids were substituted by an empty pcDNA3.1 vector.
(§4) Cell population responses of transfected HEK293T cells and U87 cells were recorded using a Flexstation III microplate reader (Molecular Devices). Briefly, cells were incubated with 2 μM Calbryte 520 AM (AAC Bioquest) for 2 h at room temperature in C1 assay buffer with 5 mM glucose (Carl Roth). Before each experiment, cells were rinsed three times with C1. Experiments with HEK293T cells were conducted 48 h after transfection, while experiments with U87 cells were performed 24 h after seeding. Acquisition of baseline fluorescence was performed for 25 s before ligand application, and cell population response was measured for 125 s after application.

mFpr3 = assay: Ca2+ imaging, HEK293T transiently transfected with mFpr3; type: cell-based, mouse; conditions: Aβ1-42 from P&E in C1 buffer; n = 3, N = 2
hFPR3 = assay: Ca2+ imaging, HEK293T transiently transfected with hFPR3
Method: as §2, §3, §4

[1] = CD spectroscopy (secondary structure); type: physicochemical; conditions: 30 μM in C1, sonicated 10 min, n = 3, N = 1
Method: CD spectra were recorded (JASCO J-1500 spectrometer) in a 1 mm High Precision Cell (Hellma Analytics). Data were processed in Spectra Analysis by JASCO and were plotted by Origin.

mouse and human FPR1 = tested on: mouse and human FPR1; set-up: method as in Tiffany et al.; conditions: ref Tiffany et al.; cited from earlier work
ThT aggregation assay = type: physicochemical
Method: DMSO. ThT (Sigma-Aldrich) stock solutions were dissolved at 1 mM in the respective buffer, sterile filtered with […] pore membranes, and stored at −20 °C. […] Fluorescence measurements were carried out as 100 μl triplicates in black optical 384-well μCLEAR-plates (Greiner Bio-One) at 37 °C with excitation at 440 nm and emission at 484 nm in a FlexStation III microplate reader within 15 min after thawing of the peptides. Signals were measured in intervals of 60 s for 120 min and were shaken for 3 s before each read.

hFPR2 = assay: Ca2+ imaging, HEK293T transiently transfected with hFPR2; type: cell-based, human
Method: as §2, §3, §4

[2] = tested on: primary murine glia and in vitro FPR expression systems; conditions: cited from earlier work
From the text: (§1) The activation of PRRs by Aβ has become a recent focus in AD research because they have a special ability to potently trigger the reactive state ([14], [25]). Among these PRRs, FPRs are one of the promising targets for AD research ([12]). They belong to a small gene family of G protein–coupled receptors with three members in humans and seven in mice ([26]). FPRs are primarily expressed in the innate and adaptive immune system, where they contribute to the detection and elimination of bacterial pathogens ([27], [28], [29], [30]). However, they are also expressed in a number of cell types in the ...

[3] = tested on: neutrophils and murine glial cells; conditions: cited from earlier work
From the text: as §1

[4] = tested on: rat microglia and astrocytes; conditions: cited from earlier work
From the text: as §1

human and murine FPR2 = conditions: cell lines transfected with human and murine FPR2; cited from earlier work
From the text: as §1

hFPR1 [5] = conditions: compared with this study; ref Le et al. and Slowik et al. (35, 42); cited from earlier work
hFPR1 [6] = assay: Ca2+ imaging, HEK293T transiently transfected with hFPR1; type: cell-based, human
hFPR1, hFPR2, hFPR3 = assay: Ca2+ imaging, human FPRs taken together; type: cell-based; conditions: transfected HEK293T
[7] = Transmission electron microscopy of aggregates; type: physicochemical; conditions: 30 μM, 24 h incubation
From the text: Samples were then stained with 4% uranyl acetate. Subsequently, TEM images were acquired (JEOL 1400 Transmission Electron Microscope) and then processed in ImageJ.

mFpr1 = assay: Ca2+ imaging, HEK293T transiently transfected with mFpr1; type: cell-based, mouse; conditions: for Ca2+ response, mFpr1: n = 3, N = 2
human and mouse FPRs = assay: Ca2+ imaging, FPR-transfected HEK293T (several human and mouse FPRs taken together); type: cell-based
Method: as §2, §3, §4

FPR1 = conditions: cited from earlier work
From the text: In summary, our study provides a systematic overview over the capability of different mouse and human FPRs to interact with Aβ in different buffer systems. To our knowledge, we are the first to report an activation of hFPR3 by Aβ and the first to identify N-abridged Aβ fragments as activators of FPRs.

APP/PS1 mice = conditions: cited from earlier work
From the text: as §1, with “... || In summary, our study provides a systematic overview over the capability of different mouse and human FPRs to interact with Aβ in different buffer systems. To our knowledge, we are the first to report an activation of hFPR3 by Aβ and the first to identify N-abridged Aβ fragments as activators of FPRs.” for “...”

U87 cells = assay: Ca2+ imaging, U87 cells; conditions: 10 μM tBoc2 vs 5 μM Aβ11-40 or Aβ17-40; n = 3, N = 1
Method: Peptides in HBSS or Tris–NaCl were dissolved in an ultrasonic bath as described above. […] The Aβ17-40 peptide used throughout the main text was purchased from Anaspec/MoBiTec and validated with Aβ17-40 peptides from Sigma-Aldrich and Synpeptide. Aβ11-40 was obtained from Peptides&Elephants. […] Tert-Boc-FLFL (tBoc2) was purchased from Bachem and dissolved in DMSO at 30 mM. f-MLFYFS (Psy-SP6) and f-MAMKKL (Sal-SP4) were obtained from VCPBIO and dissolved at 10 mM in DMSO (Psy-SP6) or at 1 mM in C1 (SP4), respectively. WKWMVm-NH2 and WKWMVm-CHO were purchased from Proteogenix and VCPBIO, respectively, and dissolved as 1 mM stock solutions in C1. fMLF was purchased from Sigma-Aldrich and also dissolved at 1 mM in C1. All peptides were thawed at room temperature approximately 1 h before each functional experiment, as this time was needed to prepare the compound plates for each measurement.
U87 MG cells (CLS) were cultured in Minimum Essential medium (Biowest) supplemented with 10% (v/v) heat-inactivated FCS (Pan Biotech), 1 unit/ml penicillin-streptomycin (Biowest), 2 mM L-glutamine (Biowest), and 1 unit/ml non-essential amino acids (Biowest) until 50 to 60% confluence. For calcium imaging and immunostaining, on average 2500 cells were seeded in each well of PDL-coated (10 μg/ml in PBS, Sigma) black optical 96-well μCLEAR-plates (Greiner Bio-One).
as §4

[8] = Ca2+ imaging, transfected HEK293T + Gα16, Calbryte 520, C1 buffer pH 7.2, n = 3, N = 1
[9] = HFIP-treated Aβ1-42 from Anaspec, 10 μM, n = 3, N = 2
[10] = 5 μM Aβ1-42 from P&E dissolved in DMSO vs C1, n = 3, N = 2
[11] = 5 μM Aβ1-42 from P&E, n = 3, N = 1
[12] = different suppliers, buffers, storage, solvents
[13] = Aβ1-42 from Synpeptide, 10 μM, n = 3, N = 2
[14] = Aβ1-42 from Sigma-Aldrich, 10 μM, n = 3, N = 2
[15] = 10 μM tBoc2 co-applied with 5 μM Aβ17-40 (Fig. S6B)

Substance: Aβ1-42: Amyloid beta peptide, human WT sequence; from Peptides&Elephants, Anaspec (untreated or HFIP-treated), Sigma-Aldrich, Synpeptide
- FPR-dependent signaling with progressing aggregation (monocytes and microglia): lost FPR-dependent signaling with progressing aggregation
- threshold for minimal detectable activation, mFpr2 (mFpr2; [8]): 3 µM
- Ca2+ response, mFpr2 (mFpr2; [9]): weakly activated hFPR3, mFpr1, and mFpr2
- Ca2+ response, mFpr3 (mFpr3): did not respond
- increase of hFPR3 response by DMSO (hFPR3; [10]): 32%
- hFPR3 response in Tris–NaCl versus C1 (hFPR3; [11]): did not significantly alter the responses of hFPR3
- threshold for minimal detectable activation, hFPR3 (hFPR3; [8]): 3 µM
- Ca2+ response, hFPR3 (hFPR3; [9]): weakly activated hFPR3, mFpr1, and mFpr2
- hFPR3 activation over all suppliers, buffers and solvents (hFPR3; [12]): activated under almost all conditions
- β-turn proportion in comparison with the Anaspec peptides ([1]; Aβ1-42 from P&E): significantly elevated β-turn proportions
- β-turn proportion in comparison with the Anaspec peptides ([1]; Aβ1-42 from Synpeptide): significantly elevated β-turn proportions
- activation of mouse and human FPR1 in an earlier study (mouse and human FPR1): failed to detect any activation of mouse and human FPR1
- capability to form aggregates in HBSS (ThT aggregation assay; Aβ1-42 from P&E, 22.5 μM, in HBSS, 37 °C): strong reduction in the capability to form aggregates
- ThT fluorescence kinetics in the first 2 h (ThT aggregation assay; Aβ1-42 from Sigma-Aldrich, 22.5 μM in C1, 37 °C): did not drastically change
- ThT fluorescence kinetics in the first 2 h (ThT aggregation assay; Aβ1-42 from Synpeptide, 22.5 μM in C1, 37 °C): did not drastically change
- ThT fluorescence kinetics in the first 2 h (ThT aggregation assay; HFIP-treated Aβ1-42 from Anaspec (aggregation control), 22.5 μM, C1 with 0.2% DMSO, 37 °C): showed the expected increase
- ThT fluorescence kinetics in the first 2 h (ThT aggregation assay; non-HFIP–treated Aβ1-42 from Anaspec, 22.5 μM in C1, 37 °C): showed a reduction of fluorescence
- Ca2+ response, hFPR2 (hFPR2; [13]): the responses of hFPR1 and hFPR2 were lost
- threshold for minimal detectable activation, hFPR2 (hFPR2; [8]): 3 µM
- intracellular uptake via FPRs [2]: FPRs mediate the intracellular uptake of Aβ1-42
- FPR2-dependent pro-inflammatory effects [3]: led to the induction of oxidative stress, the release of pro-inflammatory cytokines, and chemotaxis
- cAMP and ERK phosphorylation in rat microglia and astrocytes [4]: induced a decrease of cAMP and an induction of ERK phosphorylation
- calcium mobilization and ERK signaling (human and murine FPR2): can induce calcium mobilization and ERK signaling
- hFPR1 response to Aβ1-42 in earlier studies (hFPR1 [5]): far less pronounced
- decrease of hFPR1 response by DMSO (hFPR1 [6]; [10]): 40%
- reduction of signal amplitude, hFPR1, in Tris–NaCl versus C1 (hFPR1 [6]; [11]): approximately 50%
- Ca2+ response, hFPR1 (hFPR1 [6]; Aβ1-42 from P&E in C1 buffer, n = 3, N = 2, compared with the other FPRs): even more sensitive and had a higher signal amplitude than any other receptor
- Ca2+ response, hFPR1 (hFPR1 [6]; [14]): failed to activate hFPR1
- Ca2+ response, hFPR1 (hFPR1 [6]; [13]): the responses of hFPR1 and hFPR2 were lost
- threshold for minimal detectable activation, hFPR1 (hFPR1 [6]; Ca2+ imaging, transfected HEK293T + Gα16, Calbryte 520, assay buffer C1 pH 7.2, peptide stock 30 μM in C1, n = 3, N = 1): 3 µM
- response of hFPRs (in addition to hFPR2) (hFPR1, hFPR2, hFPR3): all other hFPRs also responded
- TEM aggregate morphology ([7]; Aβ1-42 from P&E): somewhat similar amorphous morphology
- TEM aggregate morphology ([7]; Aβ1-42 from Synpeptide): somewhat similar amorphous morphology
- TEM aggregate morphology ([7]; HFIP-treated Aβ1-42 from Anaspec): somewhat similar amorphous morphology
- TEM aggregate morphology ([7]; non-HFIP–treated Aβ1-42 from Anaspec): seemed to directly form long fibers
- Ca2+ response, mFpr1 (mFpr1; Aβ1-42 from P&E in C1 buffer, compared with the other FPRs): even more sensitive and had a higher signal amplitude than any other receptor
- threshold for minimal detectable activation, mFpr1 (mFpr1; [8]): 500 nM
- Ca2+ response, mFpr1 (mFpr1; HFIP-treated Aβ1-42 from Anaspec, 10 μM): weakly activated hFPR3, mFpr1, and mFpr2
- mFpr1 activation over all suppliers, buffers and solvents (mFpr1; [12]): activated under almost all conditions
- Ca2+ response, mFpr1 (mFpr1; non-HFIP–treated Aβ1-42 from Anaspec, 10 μM): potently activated mFpr1
- FPR responses in HBSS (human and mouse FPRs; 5 μM Aβ1-42 from P&E dissolved in HBSS, n = 3, N = 1): complete loss of nearly all FPR responses
- FPR responses in C1 compared with HBSS and Tris–NaCl (human and mouse FPRs; [11]): most robust activation of human and mouse FPRs in C1
- FPR response pattern after extended storage (human and mouse FPRs; 10 μM Aβ1-42 (Synpeptide), stored in C1 at -20 °C for 6 months vs freshly dissolved, n = 1, N = 2): Alterations of FPR responses
- Ca2+ response pattern of mouse and human FPRs (human and mouse FPRs; [14]): elicited a similar response pattern as that of P&E
- Ca2+ response, mouse and human FPRs other than mFpr1 (human and mouse FPRs; non-HFIP–treated Aβ1-42 from Anaspec, 10 μM, n = 3, N = 2): failed to activate any other mouse or human FPR

Substance: Tert-Boc-FLFL [tBoc2, reference compound]
- binding preference (FPR1): preferentially binds to FPR1
- antagonism at FPR3 (hFPR3; 10 μM tBoc2 co-applied with 5 μM Aβ17-40, n = 1, N = 2): does not inhibit FPR3
- antagonism at FPR2 (hFPR2; [15]): competitive antagonist of FPR1 and FPR2
- effect on microglia reactivity, neuronal pathology and cognition (APP/PS1 mice): reduced microglia reactivity, decreased neuronal pathology, and improved cognitive performance
- antagonism at FPR1 (hFPR1 [6]; [15]): competitive antagonist of FPR1 and FPR2
- inhibition of U87 Ca2+ response to Aβ11-40 / Aβ17-40 (U87 cells): completely abolished the responses
